Data published in article PMC10893060, “Synthesis and Study of the Structure–Activity Relationship of Antiproliferative N-Substituted Isosteviol-Based 1,3-Aminoalcohols” (Pharmaceuticals, 2024).
pIC50: −log10 of the molar value.

How the values were obtained:
Format in all cases: cell-based
HeLa = assay: MTT antiproliferative assay, HeLa; conditions: Homo sapiens, 72 h, no IC50 calculated when less than 50% inhibition at 10 μM
Description: (§1) The antiproliferative activities of the prepared diterpene analogues were studied using an MTT assay on a panel of human adherent cancer lines, including cells from cervical (HeLa), breast (MDA-MB-231, MCF-7), and ovary cancers (A2780), as given in Figure 1 and Table S1 in the Supplementary Materials. A non-malignant fibroblast cell line (NIH/3T3) was also utilised to obtain preliminary information on the cancer selectivity of the tested compounds. Based on the obtained activities, some conclusions could be drawn regarding the structure–activity relationships (SARs). Since neither the key intermediate benzyl ester of hydroxylaldehyde 4 nor the N-Boc protected aminoalcohols (6, 7, 11, 12) or even compound 8 with a free carboxylic function exerted remarkable antiproliferative effects (except for 12 against A2780 ovarian cancer cells), we could conclude that the simultaneous presence of the ester function and the basic secondary amino function were essential for the inhibition of cell growth. […] All active molecules inhibited considerably the proliferation of non-malignant cells, which meant that most currently presented agents were not optimal for further investigations of their anticancer properties.
(§2) The growth-inhibitory effects of the isosteviol-based 1,3-aminoalcohols were determined by a standard MTT (3-(4,5-dimethylthiazol-2-yl)-2,5-diphenyltetrazolium bromide) assay on a panel containing five cell lines, including Hela (cervical cancer), MDA-MB-231 and MCF-7 (breast cancers), and A2780 ovarian cancer cells. All cell lines were purchased from the European Collection of Cell Cultures (Salisbury, UK). The cells were maintained in a minimal essential medium supplemented with 10% foetal bovine serum, 1% non-essential amino acids, and 1% penicillin–streptomycin at 37 °C in a humidified atmosphere containing 5% CO2. All media and supplements were obtained from Lonza Group Ltd. (Basel, Switzerland). Cancer cells were seeded into 96-well plates (5000 cells/well); after overnight incubation, the test compound was added in two different concentrations (10 µM and 30 µM) and incubated for another 72 h under cell-culturing conditions. In the next step, 20 μL of 5 mg/mL of an MTT solution was added to each well and incubated for a further 4 h. The medium was removed and the precipitated formazan crystals were dissolved in DMSO after 60 min of shaking at 37 °C. As a final step, the absorbance was measured at 545 nm by using a microplate reader. Untreated cells were included as controls. […] Two independent experiments were performed with five wells for each condition. Calculations were performed using the GraphPad Prism 10.0 software (GraphPad Software Inc., San Diego, CA, USA).

NIH/3T3 = assay: MTT assay on non-malignant fibroblasts; conditions: Mus musculus, NIH3T3, 72 h, no IC50 calculated when less than 50% inhibition at 10 μM
Description: as §1, §2

A2780 = assay: MTT antiproliferative assay, A2780; conditions: Homo sapiens, 72 h, no IC50 calculated when less than 50% inhibition at 10 μM
Description: as §1, §2

MCF-7 = assay: MTT antiproliferative assay, MCF-7; conditions: Homo sapiens, MCF7, 72 h, no IC50 calculated when less than 50% inhibition at 10 μM
Description: as §1, §2

MDA-MB-231 = assay: MTT antiproliferative assay, MDA-MB-231; conditions: Homo sapiens, 72 h, no IC50 calculated when less than 50% inhibition at 10 μM
Description: as §1, §2

Structure (SMILES) | pIC50 (HeLa) | pIC50 (NIH/3T3) | pIC50 (A2780) | pIC50 (MCF-7) | pIC50 (MDA-MB-231)
C[C@@H](NC[C@@H]1[C@@H](O)[C@@]2(C)CCC3[C@]1(CC[C@@H]1[C@](C)(C(=O)OCc4ccccc4)CCC[C@@]31C)C2)c1ccc(F)cc1 (stereo partly drawn) [Compound 15, (4R,4aS,6aS,7R,8R,9S,11bS)-Benzyl 7-((((R)-1-(4-fluorophenyl)ethyl)amino)methyl)-8-hydroxy-4,9,11b-trimethyltetradecahydro-6a,9-methanocyclohepta[a]naphthalene-4-carboxylate] | 5.38 | 5.32 | 5.41 | 5.38 | 5.37
CC[C@H](NC[C@@H]1[C@@H](O)[C@@]2(C)CCC3[C@]1(CC[C@@H]1[C@](C)(C(=O)OC)CCC[C@@]31C)C2)c1ccccc1 (stereo partly drawn) [Compound 25, (4R,4aS,6aS,7R,8R,9S,11bS)-Methyl 8-hydroxy-4,9,11b-trimethyl-7-((((S)-1-phenylpropyl)amino)methyl)tetradecahydro-6a,9-methanocyclohepta[a]naphthalene-4-carboxylate] | 5.35 | 5.40 | 5.32 | 5.38 | 5.19
CC[C@H](NC[C@@H]1[C@@H](O)[C@@]2(C)CCC3[C@]1(CC[C@@H]1[C@](C)(C(=O)OCc4ccccc4)CCC[C@@]31C)C2)c1ccccc1 (stereo partly drawn) [Compound 17, (4R,4aS,6aS,7R,8R,9S,11bS)-Benzyl 8-hydroxy-4,9,11b-trimethyl-7-((((S)-1-phenylpropyl)amino)methyl)tetradecahydro-6a,9-methanocyclohepta[a]naphthalene-4-carboxylate] | 5.35 | 5.71 | 5.42 | 5.32 | 5.39
C[C@H](NC[C@@H]1[C@@H](O)[C@@]2(C)CCC3[C@]1(CC[C@@H]1[C@](C)(C(=O)OCc4ccccc4)CCC[C@@]31C)C2)c1cccc2ccccc12 (stereo partly drawn) [Compound 19, (4R,4aS,6aS,7R,8R,9S,11bS)-Benzyl 8-hydroxy-4,9,11b-trimethyl-7-((((S)-1-(naphthalen-1-yl)ethyl)amino)methyl)tetradecahydro-6a,9-methanocyclohepta[a]naphthalene-4-carboxylate] | 5.22 | 5.26 | 5.36 | 5.25 | 5.14
C[C@]12CCC3[C@](CC[C@@H]4[C@](C)(C(=O)OCc5ccccc5)CCC[C@@]34C)(C1)[C@H](C=O)[C@H]2O (stereo partly drawn) [Compound 4, (4R,4aS,6aS,7S,8R,9S,11bS)-Benzyl 7-formyl-8-hydroxy-4,9,11b-trimethyltetradecahydro-6a,9-methanocyclohepta[a]naphthalene-4-carboxylate] | < 5.00 | < 5.00 | < 5.00 | < 5.00 | < 5.00
CC12CCC3C(CC[C@@H]4[C@](C)(C(=O)OCc5ccccc5)CCC[C@@]34C)(C1)[C@H](CNCCCn1ccnc1)[C@H]2O (stereo partly drawn) [Compound 20, (4R,4aS,7R,8R,11bS)-Benzyl 7-(((3-(1H-imidazol-1-yl)propyl)amino)methyl)-8-hydroxy-4,9,11b-trimethyltetradecahydro-6a,9-methanocyclohepta[a]naphthalene-4-carboxylate] | 5.70 | 5.32 | 5.43 | 5.86 | 5.75
CC(C)(C)OC(=O)N(Cc1ccc(F)cc1)C[C@@H]1[C@@H](O)[C@@]2(C)CCC3[C@]1(CC[C@@H]1[C@](C)(C(=O)O)CCC[C@@]31C)C2 (stereo partly drawn) [Compound 7, (4R,4aS,6aS,7R,8R,9S,11bS)-7-(((tert-butoxycarbonyl)(4-fluorobenzyl)amino)methyl)-8-hydroxy-4,9,11b-trimethyltetradecahydro-6a,9-methanocyclohepta[a]naphthalene-4-carboxylic Acid] | < 5.00 | < 5.00 | < 5.00 | < 5.00 | < 5.00
C[C@@H](NC[C@@H]1[C@@H](O)[C@@]2(C)CCC3[C@]1(CC[C@@H]1[C@](C)(C(=O)OCc4ccccc4)CCC[C@@]31C)C2)c1cccc2ccccc12 (stereo partly drawn) [Compound 18, (4R,4aS,6aS,7R,8R,9S,11bS)-Benzyl 8-hydroxy-4,9,11b-trimethyl-7-((((R)-1-(naphthalen-1-yl)ethyl)amino)methyl)tetradecahydro-6a,9-methanocyclohepta[a]naphthalene-4-carboxylate] | 5.52 | 5.34 | 5.54 | 5.31 | 5.33
COC(=O)[C@]1(C)CCC[C@@]2(C)C3CC[C@@]4(C)C[C@]3(CC[C@H]12)[C@H](CN[C@H](C)c1ccc2ccccc2c1)[C@H]4O (stereo partly drawn) [Compound 27, (4R,4aS,6aS,7R,8R,9S,11bS)-Methyl 8-hydroxy-4,9,11b-trimethyl-7-((((R)-1-(naphthalen-2-yl)ethyl)amino)methyl)tetradecahydro-6a,9-methanocyclohepta[a]naphthalene-4-carboxylate] | 5.47 | 5.30 | 5.49 | 5.61 | 5.39
C[C@]12CCC3[C@](CC[C@@H]4[C@](C)(C(=O)OCc5ccccc5)CCC[C@@]34C)(C1)[C@H](CNCc1ccc(F)cc1)[C@H]2O (stereo partly drawn) [Compound 5, (4R,4aS,6aS,7R,8R,9S,11bS)-Benzyl 7-(((4-fluorobenzyl)amino)methyl)-8-hydroxy-4,9,11b-trimethyltetradecahydro-6a,9-methanocyclohepta[a]naphthalene-4-carboxylate] | 5.38 | 5.37 | 5.34 | 5.37 | 5.22
COC(=O)[C@]1(C)CCC[C@@]2(C)C3CC[C@@]4(C)C[C@]3(CC[C@H]12)[C@H](CNCCCn1ccnc1)[C@H]4O (stereo partly drawn) [Compound 28, (4R,4aS,6aS,7R,8R,9S,11bS)-Methyl 7-(((3-(1H-imidazol-1-yl)propyl)amino)methyl)-8-hydroxy-4,9,11b-trimethyltetradecahydro-6a,9-methanocyclohepta[a]naphthalene-4-carboxylate] | 5.43 | 5.81 | 5.35 | 5.42 | 5.36
COC(=O)[C@]1(C)CCC[C@@]2(C)C3CC[C@@]4(C)C[C@]3(CC[C@H]12)[C@H](CN[C@H](C)c1ccc(F)cc1)[C@H]4O (stereo partly drawn) [Compound 23, (4R,4aS,6aS,7R,8R,9S,11bS)-Methyl 7-((((R)-1-(4-fluorophenyl)ethyl)amino)methyl)-8-hydroxy-4,9,11b-trimethyltetradecahydro-6a,9-methanocyclohepta[a]naphthalene-4-carboxylate] | 5.38 | 5.75 | 5.37 | 5.50 | 5.29
CC(C)(C)OC(=O)N(Cc1ccc(F)cc1)C[C@@H]1[C@@H](O)[C@@]2(C)CCC3[C@]1(CC[C@@H]1[C@](C)(C(=O)OCc4ccccc4)CCC[C@@]31C)C2 (stereo partly drawn) [Compound 6, (4R,4aS,6aS,7R,8R,9S,11bS)-Benzyl 7-(((tert-butoxycarbonyl)(4-fluorobenzyl)amino)methyl)-8-hydroxy-4,9,11b-trimethyltetradecahydro-6a,9-methanocyclohepta[a]naphthalene-4-carboxylate] | < 5.00 | < 5.00 | < 5.00 | < 5.00 | < 5.00
